The numbers were not newly measured in patent US9149490B2, “Acne treatment composition and methods for using” (Skinvisible Pharmaceuticals, Inc., priority 2006, dated 2015), which cites them from elsewhere.

For the data set the following is noted: in vivo.

On to “Poly(vinylpyrrolidone/1-eicosene) [PVPE]”, for which the dermal toxicity result is on record as “no demonstrable dermal toxicity”.

On to “Poly(vinylpyrrolidone/1-hexadecene) [PVPH]”, for which the dermal toxicity result was “no demonstrable dermal toxicity”.
